Peptide text beside a SMILES is read from it. * marks the point of attachment. Cbz = O=C(OCc1ccccc1)*
Assay: Reaction time taken for industrial alkaline protease catalyzed synthesis using CBz-Phe-OCP as acyl donor and Gly-NH2 as nucleophile

Reaction time	Compound
1 h	NC(=O)CNC(=O)[C@H](Cc1ccccc1)NC(=O)OCc1ccccc1 (Cbz-Phe-Gly-NH2)
1 h	CC(C)C[C@H](NC(=O)[C@H](Cc1ccccc1)NC(=O)OCc1ccccc1)C(N)=O
1 h	NC(=O)[C@H](Cc1ccccc1)NC(=O)[C@H](Cc1ccccc1)NC(=O)OCc1ccccc1
1 h	NC(=O)[C@H](Cc1ccccc1)NC(=O)CNC(=O)[C@H](Cc1ccccc1)NC(=O)OCc1ccccc1 (Cbz-Phe-Gly-Phe-NH2)
2 h	CCCOC(=O)[C@@H](C)NC(=O)[C@H](CC(=O)OCc1ccccc1)NC(=O)OCc1ccccc1
1.5 h	CC(C)C[C@@H](NC(=O)[C@H](Cc1ccccc1)NC(=O)OCc1ccccc1)C(N)=O
1 h	CC(C)C[C@H](NC(=O)CNC(=O)[C@H](Cc1ccccc1)NC(=O)OCc1ccccc1)C(N)=O (Cbz-Phe-Gly-Leu-NH2)
1.5 h	NC(=O)CNC(=O)CNC(=O)[C@H](Cc1ccccc1)NC(=O)OCc1ccccc1 (Cbz-Phe-Gly-Gly-NH2)
2 h	NC(=O)[C@@H](Cc1ccccc1)NC(=O)[C@H](Cc1ccccc1)NC(=O)OCc1ccccc1

Reference: ChEMBL document CHEMBL1149983, “Probing the S-1 subsite selectivity of an industrial alkaline protease in anhydrous t-butanol” (Bioorg Med Chem Lett, 1993)
